Data set [1] concerns the target wild-type T7 polymerase (Escherichia phage T7, UniProt P00573). The data set is described as follows: In Vitro Transcription with Wild-Type T7 Polymerase (transcription and capping yield). The settings on record: for In vitro transcription Yield: wild-type T7 polymerase; for In vitro transcription Yield / Capping reaction Yield: OD260; for Capping reaction Yield: enzymatic capping. The method, then: The luciferase and G-CSF modified mRNA were also subjected to an enzymatic capping reaction and each modified mRNA capping reaction was evaluated for yield by spectrophometic measurement (OD260) and correct size assessed using bioanalyzer.

Data set [2] concerns rabbit reticulysates. The data set is described as follows: G-CSF expression in rabbit reticulysates (ELISA). In kind it is biochemical. The settings on record: 250 ng modified G-CSF mRNA in rabbit reticulysates. As to the method:
(§1) To assess the activity of all our different chemical modifications in the context of a second open reading frame, we replicated experiments previously conducted using luciferase mRNA, with human G-CSF mRNA. […] The mutant T7 polymerase was obtained commercially (Durascribe® T7 Transcription kit (Cat. No. DS010925) (Epicentre®, Madison, Wis.).
(§2) The modified RNA in Tables 45 and 46 were transfected in vitro in HeLa cells or added to rabbit reticulysates (250 ng of modified mRNA) as indicated. […] In Table 45, “NT” means not tested.
(An ELISA detects its analyte on a solid surface through an enzyme-linked reagent.)

Data set [3] has as its system peripheral blood mononuclear cells (PBMC). The data set is described as follows: In Vitro Screening in PBMC - G-CSF protein expression. In kind it is cell-based, human. The following applies: for G-CSF Protein Expression: 500 ng mRNA. An excerpt: (§3) The supernatant was harvested and stored frozen until analyzed by ELISA to determine the G-CSF protein expression, and the induction of the cytokines interferon-alpha (IFN-α) and tumor necrosis factor alpha (TNF-α).

In data set [4] the test system is HeLa cells. The data set is described as follows: G-CSF expression in HeLa cells (ELISA). The settings on record: for G-CSF protein (pg/ml) HeLa cells: fully modified G-CSF mRNA transfected in HeLa cells, ELISA. In kind it is cell-based, human. Also noted: key to Protein (G-CSF; HeLa): the protein production of HeLa is judged by “+,” “+/−” and “−”; the protein production of HeLa is judged by “+,” “+/−” and “−”; the protein production of HeLa is judged by “+,” “+/−” and “−”. The method, then: as §1, §2

For data set [5], the system named is peripheral blood mononuclear cells (PBMC), interferon-alpha (IFN-α). Type of data set: cell-based, human. The settings on record: Table 47 naturally occurring; IFN-alpha, background about 70 pg/ml.
Excerpt: as §3

The subject of data set [6] is human embryonic kidney 293 (HEK293) cells. The data set is described as follows: Toxicity of Nucleoside Triphosphates (NTPs), CYTO TOX-GLO assay. Type of data set: cell-based. The following applies: human. As to the method: The cytotoxicity of natural and modified nucleoside triphosphates (NTPs) alone or in combination with other bases, was analyzed in human embryonic kidney 293 (HEK293) cells in the absence of transfection reagent. […] 10 ul of the NTPs outlined in Table 12 were combined with 10 ul of lipid dilution and incubated for 30 minutes to form a complex before 80 ul of the HEK293 cell suspension was added to the NTP complex. Natural and modified NTPs were transfected at a concentration of 2.1 nM, 21 nM, 210 nM, 2.1 um, 21 uM, 210 um or 2.1 mM. NTPs in combination were transfected at a total concentration of NTPs of 8.4 nM, 84 nM, 840 nM, 8.4 uM, 84 uM, 840 uM and 8.4 mM.

Where [7] appears, read: PBMC Donor 1, 0.4 uL Lipofectamine 2000.

wild-type T7 polymerase, sequence (P00573 whole entry): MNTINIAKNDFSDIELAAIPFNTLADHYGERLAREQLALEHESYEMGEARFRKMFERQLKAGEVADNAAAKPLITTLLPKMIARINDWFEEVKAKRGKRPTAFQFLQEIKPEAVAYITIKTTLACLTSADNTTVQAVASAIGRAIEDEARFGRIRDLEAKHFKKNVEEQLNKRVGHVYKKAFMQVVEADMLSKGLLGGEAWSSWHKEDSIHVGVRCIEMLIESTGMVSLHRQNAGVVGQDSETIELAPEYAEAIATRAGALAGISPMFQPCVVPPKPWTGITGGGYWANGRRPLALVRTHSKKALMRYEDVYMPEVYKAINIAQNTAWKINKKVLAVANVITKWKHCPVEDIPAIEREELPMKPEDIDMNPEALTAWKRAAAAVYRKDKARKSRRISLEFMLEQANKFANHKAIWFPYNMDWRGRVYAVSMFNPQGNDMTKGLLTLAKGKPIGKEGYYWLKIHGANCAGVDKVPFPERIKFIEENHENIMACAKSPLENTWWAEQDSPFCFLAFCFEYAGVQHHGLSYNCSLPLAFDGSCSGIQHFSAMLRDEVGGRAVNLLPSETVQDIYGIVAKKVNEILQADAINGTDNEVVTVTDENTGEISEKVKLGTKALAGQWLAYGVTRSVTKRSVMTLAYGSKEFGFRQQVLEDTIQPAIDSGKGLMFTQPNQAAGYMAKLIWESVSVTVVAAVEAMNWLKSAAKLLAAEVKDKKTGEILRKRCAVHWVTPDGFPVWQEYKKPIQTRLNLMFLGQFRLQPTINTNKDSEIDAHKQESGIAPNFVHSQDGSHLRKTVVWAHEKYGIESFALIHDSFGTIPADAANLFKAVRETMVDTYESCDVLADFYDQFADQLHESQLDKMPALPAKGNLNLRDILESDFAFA

`COC(=O)C=Cc1cn([C@@H]2O[C@H](CO)[C@@H](O)[C@H]2O)c(=O)[nH]c1=O` [5 (2 carbomethoxyvinyl) uridine]: the “In vitro transcription Yield” value in data set [1] (G-CSF mRNA) came to 1.8 mg; in data set [1] (Luciferase mRNA) it was 0.89 mg. Besides, the “Capping reaction Yield” value in data set [1] (G-CSF modified mRNA (wild-type T7)) is 1.28 mg; in data set [1] (Luciferase modified mRNA (wild-type T7)), 0.54 mg.
For `O=c1ccn([C@@H]2O[C@H](CO)[C@@H](O)[C@H]2O)c(=S)[nH]1` [2-thiouridine], the “G-CSF protein (pg/ml) Rabbit reticulysates cells” value in data set [2] is 18,375 pg/ml. For the same compound, the “G-CSF Protein Expression” value in data set [3] (setting [7]) was 932 pg/mL; in data set [3] (PBMC Donor 2) it was 1,000 pg/ml; in data set [3] (PBMC Donor 3), 600 pg/mL. In data set [4], the “G-CSF protein (pg/ml) HeLa cells” value was 417,273 pg/ml.
In the case of `Nc1nc(=O)n([C@@H]2O[C@H](CO)[C@@H](O)[C@H]2O)cc1C=O` [Compound 5-formyl-cytidine, 5-formyl-cytidine], the “G-CSF protein (pg/ml) Rabbit reticulysates cells” value in data set [2] is recorded as 24,000 pg/ml. The “G-CSF protein (pg/ml) HeLa cells” value in data set [4] was found to be 0 pg/mL.
Take Luciferase control: in data set [2], the “G-CSF protein (pg/ml) Rabbit reticulysates cells” value is 0 pg/mL.
For the compound `O=c1[nH]c(=O)n([C@@H]2O[C@H](CO)[C@@H](O)[C@H]2O)cc1Br` [5-Bromo-uridine], in data set [2], the “G-CSF protein (pg/ml) Rabbit reticulysates cells” value is 72,000 pg/ml. The “G-CSF protein (pg/ml) HeLa cells” value in data set [4] is listed as 186,591 pg/ml.
As for `Cc1cn([C@@H]2O[C@H](CO)[C@@H](O)[C@H]2O)c(=O)nc1N` [Compound 5-methyl-cytidine, 5-methyl-cytidine], the “G-CSF protein (pg/ml) Rabbit reticulysates cells” value in data set [2] is recorded as 79,375 pg/ml. The “G-CSF protein (pg/ml) HeLa cells” value in data set [4] is on record as 646,591 pg/ml.
In the same order, the values of `Cn1cnc2c(ncn2[C@@H]2O[C@H](CO)[C@@H](O)[C@H]2O)c1=N` [Compound N1-methyl-adenosine, N1-methyl-adenosine] are 0 pg/mL and 4,773 pg/ml.
In the same order, the values of `COC(=O)C=Cc1cn([C@@H]2O[C@H](CO)[C@@H](O)[C@H]2O)c(=O)[nH]c1=O` [5-(2carbomethoxyvinyl) uridine] are 0 pg/mL and 1,364 pg/ml.
As to `O=c1[nH]c(=S)ccn1[C@@H]1O[C@H](CO)[C@@H](O)[C@H]1O` [4-thiouridine], the “G-CSF protein (pg/ml) Rabbit reticulysates cells” value in data set [2] was 52,375 pg/ml. In addition, the “G-CSF Protein Expression” value in data set [3] (setting [7]) was determined as 5 pg/mL; in data set [3] (PBMC Donor 2), 391 pg/mL; in data set [3] (PBMC Donor 3) it was 218 pg/mL. Besides, the “G-CSF protein (pg/ml) HeLa cells” value in data set [4] is 107,273 pg/ml.
Turning to `COc1cn([C@@H]2O[C@H](CO)[C@@H](O)[C@H]2O)c(=O)[nH]c1=O` [5-methoxyuridine], in data set [2], the “G-CSF protein (pg/ml) Rabbit reticulysates cells” value is given as 201,750 pg/ml. Further, the “G-CSF Protein Expression” value in data set [3] (setting [7]) is on record as 2,964 pg/ml; in data set [3] (PBMC Donor 2), 1,832 pg/ml; in data set [3] (PBMC Donor 3) it was 1,800 pg/ml. Moreover, in data set [4], the “G-CSF protein (pg/ml) HeLa cells” value is 1,715,909 pg/ml.
In the case of “N-1-methyladenosine [Compound N-1-methyladenosine]”, in data set [1] (G-CSF mRNA), the “In vitro transcription Yield” value was 0.63 mg.
Regarding `COC(=O)C=Cc1cn([C@@H]2O[C@H](CO)[C@@H](O)[C@H]2O)c(=O)[nH]c1=O` [5-(2-carbomethoxyvinyl)uridine], the figures for the “G-CSF Protein Expression” value in data set [3] (setting [7]), in data set [3] (PBMC Donor 2) and in data set [3] (PBMC Donor 3) were 77 pg/mL, 286 pg/mL and 177 pg/mL, respectively.
As to `Nc1cnn([C@@H]2O[C@H](CO)[C@@H](O)[C@H]2O)c(=O)n1` [Compound 6-Aza-cytidine, 6-Aza-cytidine], the “IVT (G-CSF), first result” value in data set [1] (Table 48 non-naturally occurring, G-CSF mRNA in vitro transcription, Pass/Fail) was “Fail”. Also, the “IVT (Luc), first result” value in data set [1] (Table 48 non-naturally occurring, luciferase mRNA in vitro transcription, Pass/Fail) is reported as “Fail”.
Turning to `O=c1[nH]c(=S)ccn1[C@@H]1O[C@H](CO)[C@@H](O)[C@H]1O` [4-thiouridine (s^4U)], the “IVT (G-CSF)” value in data set [1] (Table 47 naturally occurring, G-CSF mRNA in vitro transcription, Pass/Fail) is listed as “Pass”. The “IVT (Luc)” value in data set [1] (Table 47 naturally occurring, luciferase mRNA in vitro transcription, Pass/Fail) is given as “Fail”. For the same compound, in data set [5], the “Cytokines (G-CSF; PBMC)” value is on record as “++ (“++” means greater than 300 pg/ml IFN-alpha)”. The “Protein (G-CSF; PBMC)” value in data set [3] (Table 47 naturally occurring, background about 110 pg/ml) is “+/− (“+/−” means 150-300 pg/ml G-CSF)”. Also, in data set [4] (Table 47 naturally occurring, *** = production seen in cell free translations), the “Protein (G-CSF; HeLa)” value is listed as “+”.
As to `Cn1cnc2c(ncn2[C@@H]2O[C@H](CO)[C@@H](O)[C@H]2O)c1=N` [N1-methyladenosine], the “G-CSF Protein Expression” value stood at 182 pg/mL in data set [3] (setting [7]), 177 pg/mL in data set [3] (PBMC Donor 2) and 191 pg/mL in data set [3] (PBMC Donor 3).
The matching figures for `CNc1ncnc2c1ncn2[C@@H]1O[C@H](CO)[C@@H](O)[C@H]1O` [N6-methyladenosine]: 100 pg/mL, 168 pg/mL and 200 pg/mL.
In the case of `Nc1nc2nc[nH]c2c(=O)[nH]1` [Guanine], the “percent of viable cells” value in data set [6] (4 h, 2.1 nM) was 93.33%; in data set [6] (4 h, 21 nM), 92.84%; in data set [6] (4 h, 210 nM), 90.00%; in data set [6] (4 h, 2.1 uM), 90.60%; in data set [6] (4 h, 21 uM), 91.36%; in data set [6] (4 h, 210 uM), 90.14%. Besides, the “percent of viable cells” value was 90.96% in data set [6] (4 h, 2.1 mM); 85.41% in data set [6] (24 h, 2.1 nM); 85.50% in data set [6] (24 h, 21 nM); 86.35% in data set [6] (24 h, 210 nM); 86.13% in data set [6] (24 h, 2.1 uM); 85.93% in data set [6] (24 h, 21 uM). Further, the “percent of viable cells” value in data set [6] (24 h, 210 uM) is given as 85.86%; in data set [6] (24 h, 2.1 mM), 86.37%; in data set [6] (48 h, 2.1 nM), 89.57%; in data set [6] (48 h, 21 nM), 87.92%; in data set [6] (48 h, 210 nM) it was 85.31%; in data set [6] (48 h, 2.1 uM) it was 87.89%. Also, the “percent of viable cells” value in data set [6] (48 h, 21 uM) turned out to be 88.18%; in data set [6] (48 h, 210 uM) it was 87.05%; in data set [6] (48 h, 2.1 mM) it was 93.83%; in data set [6] (72 h, 2.1 nM) it was 93.72%; in data set [6] (72 h, 21 nM), 92.55%; in data set [6] (72 h, 210 nM), 92.19%. The “percent of viable cells” value is 92.30% in data set [6] (72 h, 2.1 uM); 92.39% in data set [6] (72 h, 21 uM); 91.41% in data set [6] (72 h, 210 uM); 97.04% in data set [6] (72 h, 2.1 mM).
On to `Nc1nc(=O)n([C@@H]2O[C@H](CO)[C@@H](O)[C@H]2O)cc1C=O` [5-formylcytidine], for which the “G-CSF Protein Expression” value was determined as 18 pg/mL in data set [3] (setting [7]), 205 pg/mL in data set [3] (PBMC Donor 2) and 23 pg/mL in data set [3] (PBMC Donor 3).
With `CNc1ncnc2c1ncn2[C@@H]1O[C@H](CO)[C@@H](O)[C@H]1O` [Compound N6-methyl-adenosine, N6-methyl-adenosine], the “G-CSF protein (pg/ml) Rabbit reticulysates cells” value in data set [2] is 0 pg/mL. Moreover, the “G-CSF protein (pg/ml) HeLa cells” value in data set [4] is 1,591 pg/ml.
